Assay results from publication PMC12040169 (PLOS Biology, 2025).

Test: in vitro
Conditions: human, hela cells, % viability

Going from COc1ccc(NC(=O)CSc2nsc(SCC(=O)Nc3ccc(OC)cc3)n2)cc1 [CBK008918] to COc1ccc2cc(C#N)c(SCC(=O)Nc3ccc(F)cc3)nc2c1 [CBK068765], the viability at 28.5 h, 10 µM falls from 92.5% to 85.7%.

First: Cc1ccc(OCCCCNCCN)c(Br)c1 [CBK265099G]
Second: Cc1c(F)cccc1CNCCNC(=O)OC(C)(C)C [CBK056700]
The viability at 28.5 h, 10 µM of the first is lower: 85.1% for the first, 95.7% for the second.

Going from CCOc1cc(/C=N/Nc2nncn2N)cc(I)c1O [CBK027879] to O=[N+]([O-])c1cc(/C=N/Nc2nnn[nH]2)ccc1N1CCOCC1 [CBK262199], the viability at 28.5 h, 10 µM rises from 93.6% to 99.7%.

First: CS(=O)(=O)N1CCc2cc(-c3cc4ccccn4c3)ccc21 [CBK285256]
Second: Cc1cn2nc(N3CCN(S(=O)(=O)c4ccccc4[N+](=O)[O-])CC3)sc2n1 [CBK298288]
The viability at 28.5 h, 10 µM of the first is lower: 107% for the first, 111% for the second.

First: CC1CCN(c2nnnc3c2sc2nc(N4CCOCC4)c4c(c23)CC(C)(C)SC4)CC1 [CBK268062]
Second: Cn1c(=O)n(CCN2CCOCC2)c(=O)c2c1nc1n2CCN1c1ccccc1 [CBK269328]
The viability at 28.5 h, 10 µM of the first is lower: 90.4% for the first, 95.1% for the second.

First: N#Cc1nc(COc2cccc(Cl)c2)oc1NCc1ccncc1 [CBK266447]
Second: Cc1ccc(NC(=O)Cc2ccncc2)c(C)n1 [CBK200385]
The viability at 28.5 h, 10 µM of the first is higher: 95.7% for the first, 90% for the second.

Going from COc1ccc([C@@]23CCC(NC(=O)Nc4ccc(OCc5ccccc5)cc4)C[C@@H]2N(C)CC3)cc1OC (stereo partly drawn) [CBK047551T] to CCc1ccccc1OCC(=O)Nc1ccc([N+](=O)[O-])cc1OC [CBK265665], the viability at 28.5 h, 10 µM falls from 105% to 97.1%.

Compared with Cc1cc(C)nc(Nc2ccc(C3CCCN(C(=O)C(C)(C)c4cccc(F)c4)C3)nc2)n1 (stereo not drawn) [CBK286007], CC(C)(C)OC(=O)N1CCC(CNS(=O)(=O)c2cccc3cccnc23)CC1 [CBK086017] is higher in viability at 28.5 h, 10 µM: 85.2% for the first, 97.1% for the second.

Compared with CC(=O)NS(=O)(=O)c1ccc(NC(=O)CCSc2ccc(C)cc2)cc1 [CBK296141], Cc1ccc(NC(=O)CN2C(=O)S/C(=C\c3cc(C)n(-c4cccc(C(=O)O)c4)c3C)C2=O)cc1 [CBK264725] is higher in viability at 28.5 h, 10 µM: 88.5% for the first, 89.9% for the second.

First: O=C(COc1ccc(I)cc1)Nc1cccnc1 [CBK263430]
Second: Fc1ccc(-c2[nH]c3ncccc3c2CN2CCOCC2)cc1 [CBK285310]
The viability at 28.5 h, 10 µM of the first is lower: 98.9% for the first, 111% for the second.

First: CC(C)c1cc(C(=O)NC(c2ccccc2)c2ccnn2C)n(C)n1 (stereo not drawn) [CBK282535]
Second: CC(=O)CSc1nc2c(c(=O)n(C)c(=O)n2C)n1CCCc1ccccc1 [CBK269581]
The viability at 28.5 h, 10 µM of the first is higher: 102% for the first, 84.6% for the second.

Going from Cc1cccc(CN2CCCC[C@H]3CN(C(=O)c4cccs4)C[C@H]32)c1 [CBK285530] to O=C(NCCn1nc(-c2cccs2)ccc1=O)C1CCCC1 [CBK283840], the viability at 28.5 h, 10 µM rises from 85.8% to 104%.

First: Cc1cc(OCC(=O)O)c(C)c2c1CC[C@@H]([C@H](C)C(=O)N1CCC(O)CC1)C2 [CBK289433]
Second: CC(C)(C)OC(=O)N1CCC(c2cc(=O)n3c(n2)CCCCC3)C1 (stereo not drawn) [CBK283415]
The viability at 28.5 h, 10 µM of the first is lower: 78.7% for the first, 88.4% for the second.

First: Cc1oc2nc(CSc3ccc4ccccc4c3)[nH]c(=O)c2c1C(=O)O [CBK296645]
Second: Cc1c2cn[nH]c(=O)c2c(C)n1-c1ccccc1 [CBK018349]
The viability at 28.5 h, 10 µM of the first is lower: 92.4% for the first, 98.3% for the second.

Compared with O=C(c1ccc(F)cc1)c1ccc(CSc2nnc3sc4ccccc4n23)cc1 [CBK265553], O=C(Cc1ccc(Cl)cc1)NCCc1c[nH]c2ccccc12 [CBK269787] is higher in viability at 28.5 h, 10 µM: 85.9% for the first, 87% for the second.

Going from N[C@H]1C[C@H]2C(=O)NC[C@@H](CCC(=O)NCc3cccs3)N2C1 [CBK289005] to CC[C@H]1CN(C(=O)C(C)(C)C)CC[C@H]1CC(=O)NCc1cccnc1 [CBK289135], the viability at 28.5 h, 10 µM rises from 86.6% to 97.8%.

Going from CCn1ncc(CN2CCCC(CCC(=O)N3CCN(C)CC3)C2)c1C (stereo not drawn) [CBK306951] to Cc1ccc(C(=O)N2CCN(CC(=O)N3CCCC3)CC2)cc1 [CBK039096], the viability at 28.5 h, 10 µM rises from 80.4% to 110%.

First: O=C(CN(c1ccccc1F)S(=O)(=O)c1ccccc1)Nc1ccccc1C(=O)O [CBK263999]
Second: CC1=C(C(=O)OCc2ccccc2)C2(C(=O)Nc3ccccc32)C(C(=O)OCc2ccccc2)=C(N)O1 (stereo not drawn) [CBK262576]
The viability at 28.5 h, 10 µM of the first is higher: 97.1% for the first, 89.6% for the second.

Going from O=C(NCCNc1c(Cl)cccc1[N+](=O)[O-])c1cccc(Br)c1 [CBK263940] to Cn1c(=O)c2c(ncn2CC(=O)Nc2cccc(Br)c2)n(C)c1=O [CBK133287], the viability at 28.5 h, 10 µM falls from 91.4% to 90.7%.

First: COC(=O)[C@@H](C)NC(=O)[C@H]1CN(C(=O)Nc2ccccc2)CCN1C(=O)c1cccs1 [CBK289629]
Second: CCN1CCCC1CNC(=O)C1(O)c2ccccc2NC(=O)N1c1ccccc1 (stereo not drawn) [CBK288554]
The viability at 28.5 h, 10 µM of the first is higher: 97.2% for the first, 90.5% for the second.

First: COc1ccc(C(=O)N2CC[C@H]3NC(=O)N(c4ccc(F)cc4)C(=O)[C@H]32)cc1 [CBK289325]
Second: O=C(O)C1CCCN(C(=O)NCc2ccc(F)cc2)C1 (stereo not drawn) [CBK161364]
The viability at 28.5 h, 10 µM of the first is lower: 86.9% for the first, 95.7% for the second.

Going from O=c1nc(O)c(I)cn1C1OC(CO)C(O)C1O (stereo not drawn) [CBK015625] to C[C@@H]1[C@H]2C[C@@H](C[C@H]1NC1=NC(=O)C(CC(=O)O)S1)C2(C)C (stereo partly drawn) [CBK059514], the viability at 28.5 h, 10 µM rises from 82.3% to 93.8%.

Going from O=C(CC1CC2CCC1C2)N1CCC(O)(c2ccccn2)CC1 (stereo not drawn) [CBK283833] to O=C1CNC(=O)C2(C/C=C/C[C@H]3COCC[C@H]3N1)CCN(CCOc1ccccc1)CC2 [CBK292077], the viability at 28.5 h, 10 µM rises from 92.7% to 107%.

Compared with Fc1c(CN2CCOCC2)cccc1CN1CCOCC1 [CBK085967], O=C(NC1CC2(CCCC2)Oc2ccccc21)C1CCOC1 (stereo not drawn) [CBK283802] is lower in viability at 28.5 h, 10 µM: 97.6% for the first, 84.3% for the second.

First: Cc1cccc(=O)n1CCCn1cc(-c2ncc[nH]2)nn1 [CBK307401]
Second: COc1ccccc1Cc1noc(COc2cccc(C)c2C)n1 [CBK265521]
The viability at 28.5 h, 10 µM of the first is lower: 90.7% for the first, 99.9% for the second.

Going from CC(C(=O)Nc1ccc(F)c(F)c1)n1cc([N+](=O)[O-])cn1 (stereo not drawn) [CBK268771] to Cc1cc(C)cc(NC(=O)CC2Sc3ccccc3NC2=O)c1 (stereo not drawn) [CBK266384], the viability at 28.5 h, 10 µM rises from 92.9% to 94%.

Going from O=C(O)CCC1C(=O)CCC1(C(=O)O)c1ccccc1 (stereo not drawn) [CBK287208] to CNC(=O)Nc1ccccc1NC(=O)NC [CBK261401], the viability at 28.5 h, 10 µM falls from 108% to 93%.

First: O=C1NC(=O)C2(CCN(C(=O)c3csc4c3CCCC4)CC2)N1 [CBK305601]
Second: COc1ccc(CCNc2ncnc3sc4c(c23)CCCCC4)cc1OC [CBK074384]
The viability at 28.5 h, 10 µM of the first is higher: 97.2% for the first, 89.9% for the second.

Going from Cc1ccc2c(c1)C(NC(=O)N(C)C1CCS(=O)(=O)CC1)CC(C)(C)O2 (stereo not drawn) [CBK307654] to CCCc1nn(CC(=O)N(C)C)c(=O)c2cc3ccsc3n12 [CBK284193], the viability at 28.5 h, 10 µM falls from 108% to 84.4%.

First: COC(=O)c1c(NC(=O)C(C)Oc2cc(C)c(Cl)c(C)c2)sc(C(C)=O)c1C (stereo not drawn) [CBK265678]
Second: CCCNC(=O)C[C@@H]1CCN(C(=O)c2ccnc(Cl)c2)C[C@@H]1CC [CBK289138]
The viability at 28.5 h, 10 µM of the first is lower: 94.1% for the first, 99.3% for the second.

Going from CCC(NS(=O)(=O)c1cnc2c(c1)c(C)nn2C)C(O)C(F)(F)F (stereo not drawn) [CBK306264] to Cc1nc2ccccc2n1C(F)(F)C(F)F [CBK022023], the viability at 28.5 h, 10 µM rises from 86.5% to 116%.

Same assay, conditions: human, hela cells, % viability, bulk resorufin, single well

CC(C)(C)OC(=O)NCCCCC(=O)N1CCC(C#N)(c2ccccc2)CC1 [CBK091401] showed a viability at 28.5 h, 10 µM of 89.4%.
